{
  "source": "ChEMBL document CHEMBL1150624",
  "about": "“Discovery of natural products from Curcuma longa that protect cells from beta-amyloid insult: a drug discovery effort against Alzheimer's disease” (2002)",
  "key": {"PC-12 [1]": {"test_system": "PC-12", "assay": "Protection against beta-amyloid (25 to 35) insult in rat PC12 cells assessed as viable cells after 24 hrs by MTT assay", "format": "functional", "conditions": "PC-12, 24 h, read-out: ED50 (the source's name)"}, "PC-12 [2]": {"test_system": "PC-12", "assay": "Protection against beta-amyloid (1 to 42) insult in rat PC12 cells assessed as viable cells after 24 hrs by MTT assay", "format": "functional", "conditions": "PC-12, 24 h, read-out: ED50 (the source's name)"}},
  "data": [
    {"smiles": "COc1cc(/C=C/C(=O)/C=C/c2ccc(O)c(OC)c2)ccc1O", "values": [
      {"measurement": "EC50", "setting": "PC-12 [1]", "result": "> 50", "unit": "µg/mL"},
      {"measurement": "EC50", "setting": "PC-12 [2]", "result": "> 50", "unit": "µg/mL"}
    ]},
    {"smiles": "O=C(/C=C/C=C/c1ccc(O)cc1)/C=C/c1ccc(O)cc1", "values": [
      {"measurement": "EC50", "setting": "PC-12 [1]", "result": "> 50", "unit": "µg/mL"},
      {"measurement": "EC50", "setting": "PC-12 [2]", "result": "> 50", "unit": "µg/mL"}
    ]},
    {"smiles": "COc1cc(/C=C/C=C/C(=O)/C=C/c2ccc(O)c(OC)c2)ccc1O", "values": [
      {"measurement": "EC50", "setting": "PC-12 [1]", "result": "> 50", "unit": "µg/mL"},
      {"measurement": "EC50", "setting": "PC-12 [2]", "result": "> 50", "unit": "µg/mL"}
    ]},
    {"smiles": "COc1cc(/C=C/C(=O)CC(=O)CC(O)c2ccc(O)c(OC)c2)ccc1O", "note": "(stereo not given)", "values": [
      {"measurement": "EC50", "setting": "PC-12 [1]", "result": 30.7, "unit": "µg/mL"},
      {"measurement": "EC50", "setting": "PC-12 [2]", "result": 44.3, "unit": "µg/mL"}
    ]},
    {"smiles": "O=C(/C=C/c1ccc(O)cc1)CC(=O)CCc1ccc(O)cc1", "values": [
      {"measurement": "EC50", "setting": "PC-12 [1]", "result": 0.5, "unit": "µg/mL"},
      {"measurement": "EC50", "setting": "PC-12 [2]", "result": 1, "unit": "µg/mL"}
    ]},
    {"smiles": "O=C(/C=C/c1ccc(O)cc1)CC(=O)/C=C/c1ccc(O)cc1", "note": "[BISDEMETHOXYCURCUMIN]", "values": [
      {"measurement": "EC50", "setting": "PC-12 [1]", "result": 2, "unit": "µg/mL"},
      {"measurement": "EC50", "setting": "PC-12 [2]", "result": 3.5, "unit": "µg/mL"}
    ]},
    {"smiles": "COc1cc(/C=C/C(=O)COC(=O)/C=C/c2ccc(O)c(OC)c2)ccc1O", "note": "[CALEBI A]", "values": [
      {"measurement": "EC50", "setting": "PC-12 [1]", "result": 1, "unit": "µg/mL"},
      {"measurement": "EC50", "setting": "PC-12 [2]", "result": 2, "unit": "µg/mL"}
    ]},
    {"smiles": "Nc1c(/N=N/c2ccc(-c3ccc(/N=N/c4cc(S(=O)(=O)[O-])c5ccccc5c4N)cc3)cc2)cc(S(=O)(=O)[O-])c2ccccc12.[Na+].[Na+]", "note": "[CONGO RED]", "values": [
      {"measurement": "EC50", "setting": "PC-12 [1]", "result": 37.5, "unit": "µg/mL"},
      {"measurement": "EC50", "setting": "PC-12 [2]", "result": 39.2, "unit": "µg/mL"}
    ]},
    {"smiles": "COc1cc(/C=C/C(=O)CC(=O)/C=C/c2ccc(O)c(OC)c2)ccc1O", "note": "[CURCUMIN]", "values": [
      {"measurement": "EC50", "setting": "PC-12 [1]", "result": 7, "unit": "µg/mL"},
      {"measurement": "EC50", "setting": "PC-12 [2]", "result": 10, "unit": "µg/mL"}
    ]},
    {"smiles": "COc1cc(/C=C/C(O)=C/C(=O)/C=C/c2ccc(O)cc2)ccc1O", "note": "[DEMETHOXYCURCUMIN]", "values": [
      {"measurement": "EC50", "setting": "PC-12 [1]", "result": 4, "unit": "µg/mL"},
      {"measurement": "EC50", "setting": "PC-12 [2]", "result": 5, "unit": "µg/mL"}
    ]}
  ]
}
